Values quoted from earlier work in US20010007868A1, “COMPOSITIONS FOR INHIBITING INTESTINAL IRON ABSORPTION” (priority 1998, published 2001).
Read-outs that look alike come from different tables or passages of the source.

Key:
[1] = humans
[2] = rats
[3] = system: intestinal absorption of iron (IAI)
[4] = fertile women, 50 mg/day over a 10 week period

O=C(O)CCCC[C@@H]1CCSS1 (racemic) [Lipoic acid]
effect on insulin resistance [1]: improve insulin resistance | effect on insulin resistance [2]: improve insulin resistance

Cc1c(O)c(=O)ccn1C [Deferiprone]
reduction of atherogenesis, in-vivo results: not statistically significant

O=C1O[C@H]([C@@H](O)CO)C(O)=C1O [ascorbic acid]
effect on IAI ([3]; with phytate-containing meal): enhances IAI and offsets the inhibitory effect of phytate

O=C([O-])[O-].[Ca+2] [calcium carbonate]
decrease of IAI ([3]; doses of about 300 mg per meal, both heme and non-heme iron sources): 50-60%

O=P([O-])([O-])O[C@H]1[C@H](OP(=O)([O-])O)[C@H](OP(=O)([O-])[O-])[C@H](OP(=O)([O-])O)[C@@H](OP(=O)([O-])[O-])[C@@H]1OP(=O)([O-])O.[Na+].[Na+].[Na+].[Na+].[Na+].[Na+].[Na+].[Na+].[Na+] [sodium phytate]
reduction of IAI ([3]; dose between 50-300 mg consumed at the time of a meal): about 85%

[Zn] [zinc]
reduction of serum ferritin levels [4]: about 20%
